Measured values taken from PubChem BioAssay (NCI).
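Exposure lasted 48 hours, with cells grown in 96-well plates and compounds tested at five concentrations. GI50 is the concentration that inhibits growth by half. The concentration for full growth arrest is given as TGI.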

Tests used:
Experiment in all cases: NCI tumour cell line growth inhibition, 48 h
[1] = test system: MDA-MB-468 breast
[2] = test system: PC-3 prostate
[3] = test system: IGROV1 ovarian
[4] = test system: SK-MEL-28 melanoma
[5] = test system: U251 CNS
[6] = test system: NCI-H522 lung
[7] = test system: K-562 leukemia
[8] = test system: RXF 393 renal
[9] = test system: DU-145 prostate
[10] = test system: MALME-3M melanoma
[11] = test system: RPMI-8226 leukemia
[12] = test system: TK-10 renal
[13] = test system: A498 renal
[14] = test system: SK-OV-3 ovarian
[15] = test system: HOP-92 NSCLC
[16] = test system: M14 melanoma
[17] = test system: BT-549 breast
[18] = test system: OVCAR-8 ovarian
[19] = test system: NCI-H226 lung
[20] = test system: UACC-62 melanoma
[21] = test system: MDA-MB-435
[22] = test system: SN12C renal
[23] = test system: SNB-75 CNS
[24] = test system: UACC-257 melanoma
[25] = test system: HS 578T breast
[26] = test system: HOP-62 NSCLC
[27] = test system: SF-295 CNS
[28] = test system: SF-539 CNS
[29] = test system: SF-268 CNS
[30] = test system: NCI/ADR-RES ovarian
[31] = test system: KM12 colon
[32] = test system: A549 NSCLC
[33] = test system: SK-MEL-2 melanoma
[34] = test system: CAKI-1 renal
[35] = test system: NCI-H460 lung
[36] = test system: EKVX NSCLC
[37] = test system: LOX IMVI melanoma
[38] = test system: SW-620 colon
[39] = test system: MCF7 breast
[40] = test system: T-47D breast
[41] = test system: SR leukemia
[42] = test system: OVCAR-5 ovarian
[43] = test system: NCI-H23 lung
[44] = test system: MDA-MB-231 breast
[45] = test system: OVCAR-3 ovarian
[46] = test system: UO-31 renal
[47] = test system: COLO 205 colon
[48] = test system: HL-60(TB) leukemia
[49] = test system: HT29 colon
[50] = test system: HCT-15 colon
[51] = test system: MOLT-4 leukemia
[52] = test system: HCC-2998 colon
[53] = test system: ACHN renal
[54] = test system: OVCAR-4 ovarian
[55] = test system: SNB-19 CNS
[56] = test system: SK-MEL-5 melanoma

CC(=O)Nc1ccc(-c2cn(-c3cccc(C(=O)Nc4ccc(Cl)c(C(F)(F)F)c4)c3)nn2)cn1
GI50 [1]: 1450 nM
TGI [1]: 3020 nM
GI50 [2]: 1830 nM
TGI [2]: 5210 nM
GI50 [3]: 1700 nM
TGI [3]: 3360 nM
GI50 [4]: 1350 nM
TGI [4]: 2820 nM
GI50 [5]: 1850 nM
TGI [5]: 3590 nM
GI50 [6]: 1710 nM
TGI [6]: 3600 nM
GI50 [7]: 1320 nM
TGI [7]: 5890 nM
GI50 [8]: 1690 nM
TGI [8]: 3500 nM
GI50 [9]: 2830 nM
TGI [9]: 8430 nM
GI50 [10]: 559 nM
TGI [10]: 1950 nM
GI50 [11]: 2500 nM
TGI [11]: 34700 nM
GI50 [12]: 2300 nM
TGI [12]: 4680 nM
GI50 [13]: 2900 nM
TGI [13]: 5460 nM
GI50 [14]: 2010 nM
TGI [14]: 5170 nM
GI50 [15]: 1580 nM
TGI [15]: 3600 nM
GI50 [16]: 1120 nM
TGI [16]: 3460 nM
GI50 [17]: 1690 nM
TGI [17]: 3500 nM
GI50 [18]: 2020 nM
TGI [18]: 4660 nM
GI50 [19]: 1870 nM
TGI [19]: 3780 nM
GI50 [20]: 1290 nM
TGI [20]: 2790 nM
GI50 [21]: 1390 nM
TGI [21]: 3050 nM
GI50 [22]: 1770 nM
TGI [22]: 3490 nM
GI50 [23]: 1610 nM
TGI [23]: 4470 nM
GI50 [24]: 1560 nM
TGI [24]: 3500 nM
GI50 [25]: 2030 nM
TGI [25]: 7010 nM
GI50 [26]: 1670 nM
TGI [26]: 3490 nM
GI50 [27]: 1510 nM
TGI [27]: 2910 nM
GI50 [28]: 1440 nM
TGI [28]: 2820 nM
GI50 [29]: 2300 nM
TGI [29]: 5730 nM
GI50 [30]: 3500 nM
TGI [30]: 17800 nM
GI50 [31]: 1810 nM
TGI [31]: 6370 nM
GI50 [32]: 1860 nM
TGI [32]: 3860 nM
GI50 [33]: 1650 nM
TGI [33]: 3780 nM
GI50 [34]: 1780 nM
TGI [34]: 3540 nM
GI50 [35]: 1500 nM
TGI [35]: 3050 nM
GI50 [36]: 1890 nM
TGI [36]: 3920 nM
GI50 [37]: 1390 nM
TGI [37]: 2720 nM
GI50 [38]: 1570 nM
TGI [38]: 3290 nM
GI50 [39]: 1820 nM
TGI [39]: 4120 nM
GI50 [40]: 2470 nM
TGI [40]: 7930 nM
GI50 [41]: 1860 nM
TGI [41]: > 100000 nM
GI50 [42]: 1930 nM
TGI [42]: 4860 nM
GI50 [43]: 1520 nM
TGI [43]: 2980 nM
GI50 [44]: 1090 nM
TGI [44]: 2390 nM
GI50 [45]: 1920 nM
TGI [45]: 3620 nM
GI50 [46]: 1640 nM
TGI [46]: 3540 nM
GI50 [47]: 1470 nM
TGI [47]: 3450 nM
GI50 [48]: 824 nM
TGI [48]: > 100000 nM
GI50 [49]: 1430 nM
TGI [49]: 3090 nM
GI50 [50]: 2020 nM
TGI [50]: 4280 nM
GI50 [51]: 2620 nM
TGI [51]: 7990 nM
GI50 [52]: 1870 nM
TGI [52]: 4020 nM
GI50 [53]: 1930 nM
TGI [53]: 4040 nM
GI50 [54]: 2530 nM
TGI [54]: 7390 nM
GI50 [55]: 2240 nM
TGI [55]: 4700 nM
GI50 [56]: 1900 nM
TGI [56]: 4300 nM
